The record followed here is US20070049593A1 (priority 2004, published 2007).

The term IC50 denotes the concentration that inhibits the measured activity by half. Low readings indicate inhibition by little substance, high ones a need for much substance.

Each structure is given as a SMILES string. Structures can show the parent of a compound that is named as a salt.

T1 sequence (P26663 2420-2963): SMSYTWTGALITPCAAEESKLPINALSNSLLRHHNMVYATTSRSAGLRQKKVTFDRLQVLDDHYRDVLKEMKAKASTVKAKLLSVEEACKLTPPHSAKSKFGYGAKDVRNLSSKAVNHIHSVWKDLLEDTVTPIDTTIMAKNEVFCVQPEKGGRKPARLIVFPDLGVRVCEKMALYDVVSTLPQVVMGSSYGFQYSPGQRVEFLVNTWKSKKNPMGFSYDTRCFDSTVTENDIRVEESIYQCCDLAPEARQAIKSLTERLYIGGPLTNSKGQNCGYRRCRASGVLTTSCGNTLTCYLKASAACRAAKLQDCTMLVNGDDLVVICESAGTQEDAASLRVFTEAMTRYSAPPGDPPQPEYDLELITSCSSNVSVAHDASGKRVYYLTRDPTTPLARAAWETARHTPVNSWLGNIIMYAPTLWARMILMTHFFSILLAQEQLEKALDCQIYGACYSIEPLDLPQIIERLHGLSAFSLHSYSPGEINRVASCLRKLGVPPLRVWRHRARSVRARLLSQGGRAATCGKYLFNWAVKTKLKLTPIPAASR

This assay addresses T1, HCV polymerase (Hepatitis C virus genotype 1b, UniProt P26663).
T1 construct: a region encoding NS5B (J Virol 1991 March, 65(3), 1105-13, 544 amino acids after deletion of 47 amino acids on the C-terminal); 6xHis (C); made in house; host or cells: Escherichia coli
In words: biochemical. Further details: species or system HCV BK strain. Summed up: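 His-tagged NS5B (BK strain, 47-aa C-terminal deletion, E. coli-expressed) at 0.5 μg/ml copied 5 μg/ml run-off RNA bearing the HCV 3′ UTR with 2 μM UTP plus [3H]UTP, 50 μM ATP/GTP, in pH 7.5 Tris with 5 mM MgCl2, 25 °C, 90 min. TCA-precipitated RNA was counted and IC50 calculated.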
In the case of `O=C(O)c1ccc2c(C3CCCCC3)c3n(c2c1)CCc1ccccc1-3` [Example 5-4, 12-cyclohexyl-5,6-dihydroindolo[2,1-a]isoquinoline-9-carboxylic acid], the IC50 was in the range of 0.1 to 1 µM.

As for `O=C(O)c1ccc2c(C3CCCCC3)c3n(c2c1)C(O)c1ccccc1-3` (stereo not drawn) [Example 5-6, 11-cyclohexyl-6-hydroxy-6H-isoindolo[2,1-a]indole-3-carboxylic acid], the IC50 is 0.1 to 1 µM.

`O=C(O)c1ccc2c(C3CCCCC3)c3n(c2c1)CCCn1cccc1-3` [Example 6-2, 13-cyclohexyl-6,7-dihydro-5H-pyrrolo[2′,1′:3,4][1,4]diazepino[1,2-a]indole-10-carboxylic acid] came in with a concentration for half-maximal inhibition (IC50) of 0.1 to 1 µM.

As for `O=C(O)c1ccc2c(C3CCCCC3)c3n(c2n1)CCOc1cc(OCc2cc(N4CCCC4=O)ccc2N2CCOCC2)ccc1-3` [Example 7-4, 12-cyclohexyl-3-[2-(morpholin-4-yl)-5-(2-oxopyrrolidin-1-yl)benzyloxy]-6,7-dihydro-5-oxa-7a,8-diazadibenzo[a,e]azulene-9-carboxylic acid dihydrochloride], the IC50 was < 0.1 µM.

For the compound `CS(=O)(=O)c1ccc(N2CCOCC2)c(COc2ccc3c(c2)OCCn2c-3c(C3CCCCC3)c3ccc(C(=O)O)nc32)c1` [Example 7-5, 12-cyclohexyl-3-[5-methanesulfonyl-2-(morpholin-4-yl)benzyloxy]-6,7-dihydro-5-oxa-7a,8-diazadibenzo[a,e]azulene-9-carboxylic acid monohydrochloride], the IC50 is < 0.1 µM.

As for `CC(=O)N(C)c1ccc(N2CCOCC2)c(COc2ccc3c(c2)OCCn2c-3c(C3CCCCC3)c3ccc(C(=O)O)nc32)c1` [Example 7-6, 3-[5-(N-acetyl-N-methylamino)-2-(morpholin-4-yl)benzyloxy]-12-cyclohexyl-6,7-dihydro-5-oxa-7a,8-diazadibenzo[a,e]azulene-9-carboxylic acid dihydrochloride], the IC50 was < 0.1 µM.

Consider `CS(=O)(=O)N1CCN(c2ccc(N3CCCC3=O)cc2COc2ccc3c(c2)OCCn2c-3c(C3CCCCC3)c3ccc(C(=O)O)nc32)CC1` [Example 7-7, 12-cyclohexyl-3-[2-(4-methanesulfonylpiperazin-1-yl)-5-(2-oxopyrrolidin-1-yl)benzyloxy]-6,7-dihydro-5-oxa-7a,8-diazadibenzo[a,e]azulene-9-carboxylic acid dihydrochloride], for which the IC50 was < 0.1 µM.

Take `O=C(O)c1ccc2c(C3CCCCC3)c3n(c2n1)CCOc1cc(OCc2ccccc2)ccc1-3` [Example 7-8, 3-benzyloxy-12-cyclohexyl-6,7-dihydro-5-oxa-7a,8-diazadibenzo[a,e]azulene-9-carboxylic acid]: the IC50 is < 0.1 µM.

For the compound `COc1ccc2c(c1)OCCn1c-2c(C2CCCCC2)c2ccc(C(=O)O)nc21` [Example 7-9, 12-cyclohexyl-3-methoxy-6,7-dihydro-5-oxa-7a,8-diazadibenzo[a,e]azulene-9-carboxylic acid], the IC50 is < 0.1 µM.

For `COc1ccc2c(c1)OCCn1c-2c(C2CCCCC2)c2ccc(C(=O)NC3(C(=O)Nc4ccc(/C=C/C(=O)O)cc4)CCC3)nc21` [Example 7-10, (E)-3-[4-({1-[(12-cyclohexyl-3-methoxy-6,7-dihydro-5-oxa-7a,8-diazadibenzo[a,e]azulene-9-carbonyl)amino]cyclobutanecarbonyl}amino)phenyl]acrylic acid], the IC50 is < 0.1 µM.

On to `O=C(O)c1ccc2c(C3CCCCC3)c3n(c2n1)CCN(CC(=O)N1CCOCC1)c1ccccc1-3` [Example 8-4, 12-cyclohexyl-5-[2-oxo-2-(morpholin-4-yl)ethyl]-6,7-dihydro-5H-5,7a,8-triazadibenzo[a,e]azulene-9-carboxylic acid dihydrochloride], for which the IC50 is < 0.1 µM.

As to `O=C(O)c1ccc2c(C3CCCCC3)c3n(c2n1)CCN(CCN1CCCCC1)c1cc(Cl)ccc1-3` [Example 8-5, 3-chloro-12-cyclohexyl-5-(2-piperidin-1-ylethyl)-6,7-dihydro-5H-5,7a,8-triazadibenzo[a,e]azulene-9-carboxylic acid trihydrochloride], the IC50 was < 0.1 µM.
